pIC50: −log10 of the molar value.

This note sets out measurements from patent US20260184691A1, “INHIBITORS AND DEGRADERS OF PIP4K PROTEIN” (Larkspur Biosciences, Inc., priority 2022, published 2026).

For this test, the target named is T1, Human PIP4K2C (Homo sapiens, UniProt Q8TBX8).
T1 construct: purchased Eurofins DiscoverX 87-0007-1094
T1 sequence (Q8TBX8 1-421): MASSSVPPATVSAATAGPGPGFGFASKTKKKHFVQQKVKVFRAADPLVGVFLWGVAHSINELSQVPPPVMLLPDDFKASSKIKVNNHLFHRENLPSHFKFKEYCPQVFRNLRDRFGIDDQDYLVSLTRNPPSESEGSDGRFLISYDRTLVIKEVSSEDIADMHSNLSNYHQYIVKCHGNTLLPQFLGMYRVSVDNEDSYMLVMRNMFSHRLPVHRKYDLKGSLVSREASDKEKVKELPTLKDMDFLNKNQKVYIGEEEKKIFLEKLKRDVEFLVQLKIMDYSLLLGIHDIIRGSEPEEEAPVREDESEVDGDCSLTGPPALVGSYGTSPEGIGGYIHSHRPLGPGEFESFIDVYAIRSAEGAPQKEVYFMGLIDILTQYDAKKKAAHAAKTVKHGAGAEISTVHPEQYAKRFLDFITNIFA
As to the kind of experiment: Enzyme binding assay (KINOMEscan), active site-directed competition binding. As to conditions: 11-point dose response, duplicate, top concentration 5 micromolar; read-out: Pip4k2c Kd: IC50. How it is done: PIP4K2C binding constants disclosed herein were determined using the proprietary Human PIP4K2C binding assay (Catalog number 87-0007-1094, Eurofins DiscoverX, San Diego, CA). This assay measures active site-directed competition binding to an immobilized ligand (see https://doi.org/10.1038/nbt1068, herein incorporated by reference in its entirety). Experiments were conducted using an 11-point dose response curve, in duplicate, with a top starting concentration of 5 micromolar; the Levenberg-Marquardt algorithm was used to fit a Hill equation to dose-response data to calculate IC50 values (see Table 5).
As usually defined, the pIC50 is the IC50 on a negative log10 scale, so that one unit is a factor of ten. In the case of `O=C1CCCN1c1cncc(Nc2ncc(Cl)c(-c3cccc(C4CCNCC4)c3)n2)c1` [Compound 26, 1-(5-((5-chloro-4-(3-(piperidin-4-yl)phenyl)pyrimidin-2-yl)amino)pyridin-3-yl)pyrrolidin-2-one], the pIC50 was above 6.30.

Turning to `CN1CCC(c2cccc(-c3nc(Nc4cncc(N5CCCC5=O)c4)ncc3Cl)c2)CC1` [Compound 27, 1-(5-((5-chloro-4-(3-(1-methylpiperidin-4-yl)phenyl)pyrimidin-2-yl)amino)pyridin-3-yl)pyrrolidin-2-one], the negative-log IC50 (pIC50) is above 6.30.

In the case of `CC(=O)N1CCC(c2cccc(-c3nc(Nc4cncc(N5CCCC5=O)c4)ncc3Cl)c2)CC1` [Compound 28, 1-(5-((4-(3-(1-acetylpiperidin-4-yl)phenyl)-5-chloropyrimidin-2-yl)amino)pyridin-3-yl)pyrrolidin-2-one], the pIC50 was above 6.30.

In the case of `O=C1CCCN1c1cncc(Nc2ncc(Cl)c(-c3cccc(C4CCCNC4)c3)n2)c1` (centres unmarked) [Compound 30, 1-(5-((5-chloro-4-(3-(piperidin-3-yl)phenyl)pyrimidin-2-yl)amino)pyridin-3-yl)pyrrolidin-2-one], the pIC50 is above 6.30.

Regarding `CN1CCN(c2cncc(Nc3ncc(Cl)c(-c4cccc(-c5ccccc5)c4)n3)c2)C1=O` [Compound 32, 1-(5-((4-([1,1′-biphenyl]-3-yl)-5-chloropyrimidin-2-yl)amino)pyridin-3-yl)-3-methylimidazolidin-2-one], the pIC50 was above 6.30.

On to `CN1CCCC(c2cccc(-c3nc(Nc4cncc(N5CCCC5=O)c4)ncc3Cl)c2)C1` (centres unmarked) [Compound 33, 1-(5-((5-chloro-4-(3-(1-methylpiperidin-3-yl)phenyl)pyrimidin-2-yl)amino)pyridin-3-yl)pyrrolidin-2-one], for which the pIC50 was above 6.30.

On to `CC(=O)N1CCCC(c2cccc(-c3nc(Nc4cncc(N5CCCC5=O)c4)ncc3Cl)c2)C1` (centres unmarked) [Compound 34, 1-(5-((4-(3-(1-acetylpiperidin-3-yl)phenyl)-5-chloropyrimidin-2-yl)amino)pyridin-3-yl)pyrrolidin-2-one], for which the pIC50 was above 6.30.

As to `CN1CC2(CC(=O)N(c3cncc(Nc4ncc(Cl)c(-c5cccc(-c6ccccc6)c5)n4)c3)C2)C1` [Compound 35, 6-(5-((4-([1,1′-biphenyl]-3-yl)-5-chloropyrimidin-2-yl)amino)pyridin-3-yl)-2-methyl-2,6-diazaspiro[3.4]octan-7-one], the negative-log IC50 (pIC50) is above 6.30.

For `CC(=O)N1CC2(CC(=O)N(c3cncc(Nc4ncc(Cl)c(-c5cccc(-c6ccccc6)c5)n4)c3)C2)C1` [Compound 36, 6-(5-((4-([1,1′-biphenyl]-3-yl)-5-chloropyrimidin-2-yl)amino)pyridin-3-yl)-2-acetyl-2,6-diazaspiro[3.4]octan-7-one], the pIC50 was above 6.30.

In the case of `O=C1CCCN1c1cncc(Nc2ncc(Cl)c(N3CCC(N4CCCC4)C3)n2)c1` (centres unmarked) [Compound 37, 1-(5-((4-([1,3′-bipyrrolidin]-1′-yl)-5-chloropyrimidin-2-yl)amino)pyridin-3-yl)pyrrolidin-2-one], the pIC50 was above 6.30.

As for `O=C1CCCN1c1cncc(Nc2ncc(Cl)c(-c3cccc(N4CCCCC4)c3)n2)c1` [Compound 38, 1-(5-((5-chloro-4-(3-(piperidin-1-yl)phenyl)pyrimidin-2-yl)amino)pyridin-3-yl)pyrrolidin-2-one], the pIC50 is above 6.30.

In the case of `O=C1CCCN1c1cncc(Nc2ncc(Cl)c(-c3cccc(C4CCC4)c3)n2)c1` [Compound 39, 1-(5-((5-chloro-4-(3-cyclobutylphenyl)pyrimidin-2-yl)amino)pyridin-3-yl)pyrrolidin-2-one], the pIC50 was above 6.30.

For `O=C1CCCN1c1cncc(Nc2ncc(Cl)c(-c3cccc(C4CCCC4)c3)n2)c1` [Compound 40, 1-(5-((5-chloro-4-(3-cyclopentylphenyl)pyrimidin-2-yl)amino)pyridin-3-yl)pyrrolidin-2-one], the pIC50 is above 6.30.

For the molecule `O=C1CCCN1c1cncc(Nc2ncc(Cl)c(N3CCOC(c4ccccc4)C3)n2)c1` (centres unmarked) [Compound 41, 1-[5-[[5-chloro-4-(2-phenylmorpholin-4-yl)pyrimidin-2-yl]amino]-3-pyridyl]pyrrolidin-2-one], the pIC50 is above 6.30.
